Measurements as given in patent publication US20190142810A1, “MITOCHONDRIAL INHIBITORS FOR THE TREATMENT OF PROLIFERATION DISORDERS” (Basilea Pharmaceutica International AG, priority 2016, published 2019).

Test system: HeLa galactose cells
Test: Cell growth and proliferation assay of HeLa galactose cells (crystal violet)
Format: cell-based
Conditions: 72 hours incubation, crystal violet staining, absorbance at 590 nm
Procedure: The cervical tumor cell line HeLa (ATCC, CCL-2) was cultivated in DMEM medium (Invitrogen cat. no. 11971, 4.5 g/L high glucose) containing 10% fetal calf serum (Sigma cat. no. F9665) and 1% Penicillin/Streptomycin (Sigma cat. no. P0781) at 37° C. in 5% CO2. HeLa galactose cells (i.e. HeLa cells that grow in high concentrations of galactose) were generated from HeLa glucose cells (i.e. HeLa cells that grow in high concentrations of glucose) by gradually changing the amount of glucose in the media to zero glucose in the presence of galactose as a sugar source (50% galactose/50% glucose media for one week, then 75% galactose/25% glucose media for one week, to 100% galactose media in the third week). Galactose media (Invitrogen cat. no. 11966) was supplemented with 10 mM galactose (Sigma cat. no. G5388).
Cell Growth and Proliferation Assay of HeLa Galactose and Glucose Cells
HeLa galactose cells and HeLa glucose cells were seeded in 96 well plates (TPP, cat. no 92696) at 2000 and 1500 cells/well, respectively, in 100 μL of complete medium. After overnight incubation the cells were incubated for 72 hours in complete medium containing 0.001% DMSO or compounds (final concentration of DMSO 0.001%). After the medium was removed, cells were fixed and stained by adding 50 μL crystal violet staining (0.2% crystal violet (Sigma-Aldrich cat. no. C0775) in 50% methanol) per well. The plates were incubated for 1 hour at room temperature. Subsequently the stain was decanted and plates were washed 4 times with de-mineralized water. Plates were air-dried for 2 hours. The stain was dissolved by adding 100 μL buffer (0.1 M Tris pH 7.5, 0.2% SDS, 20% ethanol) per well and shaking the plates. Absorbance at 590 nm was measured using a SpectraMax® 250 plate reader (Molecular Devices). Antiproliferative/growth inhibition IC50s were calculated from concentration-response curves using GraphPad Prism software.

IC50	SMILES
355 nM	COCC1CN(C(=O)Nc2nc(C)ns2)CC/C1=C/c1ccc(Cl)cc1F (stereo not drawn) [Example 130, (4Z)-4-[(4-chloro-2-fluoro-phenyl)methylene]-3-(methoxymethyl)-N-(3-methyl-1,2,4-thiadiazol-5-yl)piperidine-1-carboxamide]
100 nM	COCC1CN(C(=O)Nc2nc(C)ns2)CC/C1=C/c1ccc(Cl)cc1F (stereo not drawn) [Example 133]

Same assay, conditions: Homo sapiens, HeLa, 72 h, 72 hours incubation, crystal violet staining, absorbance at 590 nm

SMILES	IC50
O=C(Nc1ccncn1)N1CCC(Cc2ccc(Cl)cc2Cl)CC1 [Example 22, 4-[(2,4-dichlorophenyl)methyl]-N-pyrimidin-4-yl-piperidine-1-carboxamide]	837 nM
COc1ccc(CC2CCN(C(=O)Nc3nc(C)ns3)CC2)c(N)c1 [Example 23]	356 nM
Cc1nsc(NC(=O)N2CCC(Cc3ccc(OCC(C)C)cc3F)CC2)n1 [Example 31]	795 nM
Cc1nsc(NC(=O)N2CCC(Cc3ccc(CN4CCOCC4)cc3)CC2)n1 [Example 34, N-(3-methyl-1,2,4-thiadiazol-5-yl)-4-[[4-(morpholinomethyl)phenyl]methyl]piperidine-1-carboxamide]	572 nM
COC(=O)c1ccc(CC2CCN(C(=O)Nc3nc(C)ns3)CC2)c(F)c1 [Example 36]	540 nM
Cc1nsc(NC(=O)N2CCC(Cc3ccc(C(N)=O)cc3F)CC2)n1 [Example 37, 4-[(4-carbamoyl-2-fluoro-phenyl)methyl]-N-(3-methyl-1,2,4-thiadiazol-5-yl)piperidine-1-carboxamide]	478 nM
Cc1nsc(NC(=O)N2CCC(Cc3ccc(N4CCCC4)cc3)CC2)n1 [Example 42]	670 nM
Cc1nsc(NC(=O)N2CCC(=Cc3ccc(N4CCCC4)cc3)CC2)n1 [Example 43]	439 nM
Cc1nsc(NC(=O)N2CCC(Cc3ccc(N4CCCC4)cc3F)CC2)n1 [Example 44]	429 nM
Cc1nsc(NC(=O)N2CCC(Cc3ccc(Cl)cn3)CC2)n1 [Example 61]	516 nM
Cc1nsc(NC(=O)N2CCC(Oc3ccc(F)cc3)CC2)n1 [Example 73]	465 nM
NC(=O)Cc1nsc(NC(=O)N2CCC(=Cc3ccc(Cl)cc3F)CC2)n1 [Example 81, N-[3-(2-amino-2-oxo-ethyl)-1,2,4-thiadiazol-5-yl]-4-[(4-chloro-2-fluoro-phenyl)methylene]piperidine-1-carboxamide]	888 nM
Cc1nsc(NC(=O)N2CCC(=Cc3ccc(C=O)cc3F)CC2)n1 [Example 88, 4-[(2-fluoro-4-formyl-phenyl)methylene]-N-(3-methyl-1,2,4-thiadiazol-5-yl)piperidine-1-carboxamide]	418 nM
Cc1nsc(NC(=O)N2CCC(=Cc3ccc(CN(C)CCO)cc3F)CC2)n1 [Example 90, 4-[[2-fluoro-4-[[2-hydroxyethyl(methyl)amino]methyl]phenyl]methylene]-N-(3-methyl-1,2,4-thiadiazol-5-yl)piperidine-1-carboxamide]	693 nM
Cc1nsc(NC(=O)N2CCC(=Cc3ccc(CNCCCN4CCOCC4)cc3F)CC2)n1 [Example 91]	492 nM
Cc1nsc(NC(=O)N2CCC(=Cc3c(F)cc(O)cc3F)CC2)n1 [Example 99, 4-[(2,6-difluoro-4-hydroxy-phenyl)methylene]-N-(3-methyl-1,2,4-thiadiazol-5-yl)piperidine-1-carboxamide]	307 nM
CC(=C1CCN(C(=O)Nc2nc(C)ns2)CC1)c1ccc(Cl)cc1F [Example 104]	642 nM
Cc1nsc(NC(=O)N2CCC(C(C)c3ccc(Cl)cc3F)CC2)n1 (stereo not drawn) [Example 105]	482 nM
Cc1nsc(NC(=O)N2CCC(=Cc3ccc(Cl)cc3F)C(F)C2)n1 (stereo not drawn) [Example 106]	467 nM
Cc1nsc(NC(=O)N2CCC(=Cc3ccc(OCCCO)cc3F)CC2)n1 [Example 107, 4-[[2-fluoro-4-(3-hydroxypropoxy)phenyl]methylene]-N-(3-methyl-1,2,4-thiadiazol-5-yl)piperidine-1-carboxamide]	389 nM
Cc1nsc(NC(=O)N2CCC(=Cc3ccc(OCCCN)cc3F)CC2)n1 [Example 111]	514 nM
COCCC1CN(C(=O)Nc2nc(C)ns2)CC/C1=C/c1ccc(Cl)cc1F (stereo not drawn) [Example 134, (4Z)-4-[(4-chloro-2-fluoro-phenyl)methylene]-3-(2-methoxyethyl)-N-(3-methyl-1,2,4-thiadiazol-5-yl)piperidine-1-carboxamide]	449 nM
COCCC1CN(C(=O)Nc2nc(C)ns2)CC/C1=C\c1ccc(Cl)cc1F (stereo not drawn) [Example 135, (4E)-4-[(4-chloro-2-fluoro-phenyl)methylene]-3-(2-methoxyethyl)-N-(3-methyl-1,2,4-thiadiazol-5-yl)piperidine-1-carboxamide]	636 nM
Cc1nsc(NC(=O)N2CCC(=Cc3ccc(N(C)CCCCN)cc3F)CC2)n1 [Example 163]	293 nM
Cc1cc(NC(=O)N2CCC(Cc3ccc(Cl)cc3F)CC2)cnn1 [Example 165]	383 nM
CNc1nsc(NC(=O)N2CCC(Cc3ccc(Cl)cc3F)CC2)n1 [Example 166, 4-[(4-chloro-2-fluoro-phenyl)methyl]-N-[3-(methylamino)-1,2,4-thiadiazol-5-yl]piperidine-1-carboxamide]	407 nM
Cc1nsc(NC(=O)N2CCC(Cc3c(F)cc(Cl)cc3F)CC2(C)C)n1 (stereo not drawn) [Example 167]	500 nM
Cc1nsc(NC(=O)N2CC/C(=C/c3c(F)cc(Cl)cc3F)CC2(C)C)n1 [Example 169]	432 nM
Cc1nsc(NC(=O)N2CCC(=Cc3ccc(C#CCO)cc3F)CC2)n1 [Example 170, 4-[[2-fluoro-4-(3-hydroxyprop-1-ynyl)phenyl]methylene]-N-(3-methyl-1,2,4-thiadiazol-5-yl)piperidine-1-carboxamide]	415 nM

Now from value to compound:

IC50	SMILES
159 nM	Cc1nsc(NC(=O)N2CCC(=Cc3ccc(N)cc3F)CC2)n1 [Example 119, 4-[(4-amino-2-fluoro-phenyl)methylene]-N-(3-methyl-1,2,4-thiadiazol-5-yl)piperidine-1-carboxamide]
182 nM	Cc1nsc(NC(=O)N2CCC(=Cc3ccc(N(C)CCN)cc3F)CC2)n1 [Example 122, 4-[[4-[2-aminoethyl(methyl)amino]-2-fluoro-phenyl]methylene]-N-(3-methyl-1,2,4-thiadiazol-5-yl)piperidine-1-carboxamide]
245 nM	CC(=O)NCCN(C)c1ccc(C=C2CCN(C(=O)Nc3nc(C)ns3)CC2)c(F)c1 [Example 123, 4-[[4-[2-acetamidoethyl(methyl)amino]-2-fluoro-phenyl]methylene]-N-(3-methyl-1,2,4-thiadiazol-5-yl)piperidine-1-carboxamide]
70 nM	Cc1nsc(NC(=O)N2CCC(=Cc3ccc(N(C)CCCN)cc3F)CC2)n1 [Example 124]
63 nM	Cc1nsc(NC(=O)N2CCCC(=Cc3ccc(N(C)C)cc3F)CC2)n1 [Example 125]
68 nM	Cc1nsc(NC(=O)N2CCCC(Cc3ccc(N(C)C)cc3F)CC2)n1 (stereo not drawn) [Example 126]
264 nM	Nc1cc(NC(=O)N2CCC(=Cc3ccc(Cl)cc3F)CC2)ccn1 [Example 131]
76 nM	Cc1cc(NC(=O)N2CCC(=Cc3ccc(N(C)C)cc3F)CC2)ccn1 [Example 132]
81 nM	Cc1cc(NC(=O)N2CCC(=Cc3ccc(Cl)cc3F)CC2)ncn1 [Example 136]
86 nM	Cc1nsc(NC(=O)N2CCC(C(=O)c3ccc(C(F)(F)F)cc3F)CC2)n1 [Example 142, 4-[2-fluoro-4-(trifluoromethyl)benzoyl]-N-(3-methyl-1,2,4-thiadiazol-5-yl)piperidine-1-carboxamide]
124 nM	Cc1nsc(NC(=O)N2CCC(=Cc3c(F)cc(NC4CCOC4)cc3F)CC2)n1 (stereo not drawn) [Example 150]
149 nM	Cc1nsc(NC(=O)N2CCC(C(=O)c3ccc(N(C)C)cc3F)CC2)n1 [Example 155, 4-[4-(dimethylamino)-2-fluoro-benzoyl]-N-(3-methyl-1,2,4-thiadiazol-5-yl)piperidine-1-carboxamide]
193 nM	Cc1cc(NC(=O)N2CCC(C(=O)c3ccc(N(C)C)cc3F)CC2)ccn1 [Example 156]
215 nM	CCN(CC)c1cc(F)c(C=C2CCN(C(=O)Nc3nc(C)ns3)CC2)c(F)c1 [Example 159]
162 nM	Cc1nsc(NC(=O)N2CCN(Cc3ccc(Cl)cc3F)CC(O)C2)n1 (stereo not drawn) [Example 162]
280 nM	Cc1nsc(NC(=O)N2CC/C(=C\c3c(F)cc(Cl)cc3F)CC2(C)C)n1 [Example 168]
67 nM	Cc1nsc(NC(=O)N2CCC(C(=O)c3ccc(C#N)cc3F)CC2)n1 [Example 171]
126 nM	Cc1cc(NC(=O)N2CCC(C(=O)c3ccc(C#N)cc3F)CC2)ccn1 [Example 172]
160 nM	Cc1cc(NC(=O)N2CCC(C(=O)c3c(F)cc(C#N)cc3F)CC2)ccn1 [Example 174]
58 nM	Cc1cc(NC(=O)N2CCC(=Cc3c(F)cc(C#N)cc3F)CC2)ccn1 [Example 175]
